# Assay results taken from ChEMBL document CHEMBL1145638, “Discovery of a novel submicromolar inhibitor of the lymphoid specific tyrosine phosphatase” (Bioorg Med Chem Lett, 2008).
# Biological target: T1, Tyrosine-protein phosphatase non-receptor type 22 (Homo sapiens, UniProt Q9Y2R2)
# T1 sequence (Q9Y2R2 whole entry): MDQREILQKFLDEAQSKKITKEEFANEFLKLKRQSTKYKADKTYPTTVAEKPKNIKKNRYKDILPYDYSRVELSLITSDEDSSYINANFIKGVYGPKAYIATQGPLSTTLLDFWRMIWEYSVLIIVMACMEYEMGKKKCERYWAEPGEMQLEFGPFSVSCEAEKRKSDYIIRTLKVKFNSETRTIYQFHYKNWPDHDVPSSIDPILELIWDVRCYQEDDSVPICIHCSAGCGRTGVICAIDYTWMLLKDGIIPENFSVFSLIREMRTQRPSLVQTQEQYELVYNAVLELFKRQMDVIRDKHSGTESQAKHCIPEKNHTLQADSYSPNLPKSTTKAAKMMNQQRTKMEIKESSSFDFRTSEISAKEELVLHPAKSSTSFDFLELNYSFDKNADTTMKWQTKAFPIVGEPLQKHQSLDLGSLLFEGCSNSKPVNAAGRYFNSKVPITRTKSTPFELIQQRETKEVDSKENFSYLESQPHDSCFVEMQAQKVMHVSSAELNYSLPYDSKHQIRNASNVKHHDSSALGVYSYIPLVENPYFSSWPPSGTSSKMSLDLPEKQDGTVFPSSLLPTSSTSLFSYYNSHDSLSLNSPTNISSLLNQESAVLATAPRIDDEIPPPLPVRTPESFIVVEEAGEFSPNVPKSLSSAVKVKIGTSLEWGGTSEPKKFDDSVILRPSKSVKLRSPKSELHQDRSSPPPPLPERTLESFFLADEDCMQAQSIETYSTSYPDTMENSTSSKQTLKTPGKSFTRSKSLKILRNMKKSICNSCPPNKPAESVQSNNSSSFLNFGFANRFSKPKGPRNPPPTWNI
# Experiment: Inhibition of lymphoid specific tyrosine phosphatase
row,SMILES,IC50
1,O=C1CN(/N=C/c2ccc(-c3ccc(O)c(C(=O)O)c3)s2)C(=O)N1,34 µM
2,O=C(O)CN1C(=O)CN(/N=C/c2ccc(-c3ccc(O)c(C(=O)O)c3)o2)C1=O,36 µM
3,COC(=O)c1cc(-c2ccc(/C=C3\SC(=O)N(CC(=O)O)C3=O)s2)ccc1O,18 µM
4,COC(=O)c1cc(-c2ccc(/C=C3\SC(=O)N(CC(=O)O)C3=O)o2)ccc1O,> 44 µM
5,O=C1CN(/N=C/c2ccc(-c3ccc(O)c(C(=O)O)c3)o2)C(=O)N1,> 44 µM
6,O=C(O)CN1C(=O)S/C(=C\c2ccc(-c3ccc(O)c(C(=O)O)c3)o2)C1=O,5.6 µM
7,COC(=O)c1cc(-c2ccc(/C=C3\SC(=S)N(CC(=O)O)C3=O)o2)ccc1O,21 µM
8,O=C(O)CN1C(=O)CN(/N=C/c2ccc(-c3ccc(O)c(C(=O)O)c3)s2)C1=O,> 44 µM
9,COC(=O)CCN1C(=O)S/C(=C\c2ccc(-c3ccc(O)c(C(=O)OC)c3)o2)C1=O,44 µM
10,O=C(O)CN1C(=O)/C(=C/c2ccc(-c3ccc(O)c(C(=O)O)c3)o2)SC1=S,8.7 µM
11,O=C(O)C(Cc1ccccc1)N1C(=O)/C(=C/C2=c3ccccc3=CCC2)SC1=S (stereo not given),14 µM
12,COC(=O)c1cc(-c2ccc(/C=N/N3CC(=O)NC3=O)o2)ccc1O,> 44 µM
13,COC(=O)CN1C(=O)S/C(=C\c2ccc(-c3ccc(O)c(C(=O)OC)c3)o2)C1=O,> 44 µM
14,O=C(O)CCN1C(=O)S/C(=C\c2ccc(-c3ccc(O)c(C(=O)O)c3)s2)C1=O,5.9 µM
15,O=C(O)CN1C(=O)/C(=C/c2ccc(-c3ccc(O)c(C(=O)O)c3)s2)SC1=S,5.4 µM
16,COC(=O)c1cc(-c2ccc(/C=N/N3CC(=O)NC3=O)s2)ccc1O,> 44 µM
17,O=C(O)COc1ccc(-c2ccc(/C=C3\SC(=S)N(CC(=O)O)C3=O)o2)cc1C(=O)O,> 44 µM
18,COC(=O)CCN1C(=O)S/C(=C\c2ccc(-c3ccc(O)c(C(=O)OC)c3)s2)C1=O,> 44 µM
19,COC(=O)CN1C(=O)S/C(=C\c2ccc(-c3ccc(O)c(C(=O)OC)c3)s2)C1=O,> 44 µM

# The next compounds have a lower IC50 than those just listed; values first:
row,IC50,SMILES
1,4.3 µM,COC(=O)c1cc(-c2ccc(/C=C3\SC(=O)N(CCC(=O)O)C3=O)o2)ccc1O
2,0.39 µM,COC(=O)c1cc(-c2ccc(/C=C3\SC(=O)N(CCC(=O)O)C3=O)s2)ccc1O
3,1.3 µM,O=C(O)CCCN1C(=O)/C(=C\c2ccc(-c3nc4ccccc4s3)o2)SC1=S
4,3.5 µM,Cc1ccc(NC(=O)CN2C(=O)S/C(=C\c3ccc(-c4cccc(C(=O)O)c4C)o3)C2=O)cc1 (stereo in doubt; form 2)
5,0.98 µM,O=C(O)CCN1C(=O)/C(=C\c2ccc(-c3nc4ccccc4s3)o2)SC1=S
6,2.5 µM,CC(C(=O)O)N1C(=O)/C(=C/C=C/c2ccco2)SC1=S (stereo not given)
7,1.9 µM,Cc1ccccc1NC(=O)CN1C(=O)S/C(=C\c2cccn2-c2cccc(C(=O)O)c2)C1=O
8,4.8 µM,COC(=O)CN1C(=O)S/C(=C\c2ccc(-c3ccc(O)c(C(=O)O)c3)o2)C1=O
9,4.8 µM,Cc1cccc(C)c1NC(=O)CN1C(=O)S/C(=C\c2cccn2-c2cccc(C(=O)O)c2)C1=O
10,5.1 µM,O=C(O)CCN1C(=O)S/C(=C\c2ccc(-c3ccc(O)c(C(=O)O)c3)o2)C1=O
11,3.3 µM,Cc1ccc(NC(=O)CN2C(=O)S/C(=C\c3ccc(-c4cccc(C(=O)O)c4C)o3)C2=O)cc1 (stereo in doubt; form 1)
12,2.8 µM,O=C(O)CN1C(=O)S/C(=C\c2ccc(-c3ccc(O)c(C(=O)O)c3)s2)C1=O
13,4.3 µM,COC(=O)c1cc(-c2ccc(/C=C3\SC(=S)N(CC(=O)O)C3=O)s2)ccc1O
14,1.8 µM,COC(=O)CN1C(=O)S/C(=C\c2ccc(-c3ccc(O)c(C(=O)O)c3)s2)C1=O
15,1 µM,Cc1ccc(NC(=O)CN2C(=O)S/C(=C\c3cccn3-c3cccc(C(=O)O)c3)C2=O)c(C)c1
16,1.9 µM,CC(C)C(C(=O)O)N1C(=O)/C(=C/C=C/c2ccco2)SC1=S (stereo not given)
